Legend:
Type in all cases: in vivo
Aedes aegypti = experiment: Olfactometer attraction test, treatment port vs control port, approximately 75 female mosquitoes; settings: for Response with L-LA (%): compound 500 μL together with L-lactic acid; for caught in CK (check or control port): compound alone 500 μL in treatment port; for Δ [(Resp with LA) − Resp] (%): difference between response with L-lactic acid and response alone; for Response Avg %: 60 mL glass petri dish; for Response with Ace (%): base compound together with acetone; for Δ [(Resp with Ace) − Resp] (%): difference between response with acetone and response alone
Experimental: The tests were conducted in an olfactometer (55 ft^3/min airflow, 80° F., 60% R.H.) as described by Posey, J. Med. Entomol., 35, 330-334 (1998); and LA is lactic acid. Mosquitoes were allowed to settle at least one hour prior to testing. The olfactometer was cleaned after each battery of tests. Each battery consisted of three tests, conducted at 08:30, 11:00 and 13:00 hours local time. Each of the three tests was conducted in a separate cage. The control consisted of identical sample delivery devices and conditions compared to that of the treatment side. Both the treatment and control ports were opened and closed simultaneously when inserting a new treatment/control.

Anopheles albimanus = experiment: Olfactometer attraction test of compounds and compositions;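 further: olfactometer with a treatment port and a matching control port using identical delivery device and conditions, both opened together, three tests per battery, each run in its own cage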
Aedes albopictus = experiment: as above; settings: single treatment, 1B (1 black cap)
Source text: The olfactometer was cleaned after each battery of tests.

[1] = compound alone, high dose of 500 μL
[2] = base compound alone (mode of action similar to lactic acid)
[3] = single compound, dose 500 (μL), Aedes aegypti attraction

| Structure (SMILES) | Response with L-LA (%) (Aedes aegypti) | Response (%) (Aedes aegypti; [1]) | Δ [(Resp with LA) − Resp] (%) (Aedes aegypti) | % caught (Anopheles albimanus; single treatment, 500 μL) | further results |
| --- | --- | --- | --- | --- | --- |
| C=CC(C)=O [3-buten-2-one] | 39% | 31% | 8% | 45.2% | caught in CK (check or control port), with L-LA (Aedes aegypti; compound 500 μL with L-lactic acid in treatment port, mosquitoes in control port): 51%; caught in CK (check or control port) (Aedes aegypti; mosquitoes in control port): 61%; Response Avg % (Aedes aegypti; no Base, Activator1 dose 500): 31.0% |
| CCSCC [diethyl sulfide] | 54% | 15% | 39% | 33.3% |  |
| C=CC(=C)C [isoprene] | 23% | 12% | 11% | 0.0% | Response (%) (Aedes aegypti; [2]): 12%; Response with Ace (%) (Aedes aegypti): 56%; Δ [(Resp with Ace) − Resp] (%) (Aedes aegypti): 44% |
| CSC [dimethyl sulfide] | 79% | 32% | 47% | 68.4% |  |
| CCCC(C)=O [2-pentanone] | 76% | 8% | 64% | 10.8% |  |
| CCCCC(C)=O [2-hexanone] | 51% | 3% | 48% | 4.3% | Response Avg % (Aedes aegypti; [3]): 3.0% |
| CCCCCC(C)=O [2-heptanone] | 42% | 17% | 25% | 10.4% |  |
| CC(=O)C(C)=O [2,3-butanedione] | 29% | 37% | −8% | 1.4% |  |
| CCCC=O [butyraldehyde] | 7% | 6% | 1% | 1.3% | Response (%) (Aedes aegypti; [2]): 6%; Response with Ace (%) (Aedes aegypti): 7%; Δ [(Resp with Ace) − Resp] (%) (Aedes aegypti): 1% |
| N#Cc1ccccc1 [benzonitrile] | 48% | 4% | 42% | 3.8% | Response Avg % (Aedes aegypti; [3]): 4.0% |
| ClCCl [methylene chloride] | 7090% | 87% | −7% | 75.7% |  |
| CCC(C)C(C)=O (stereo not drawn) [3-methyl-2-pentanone] | 9% | 8% | 1% | 17.1% |  |
| ClC(Cl)(Cl)Cl [carbon tetrachloride] | 92% | 92% | 0% | 74.0% |  |
| CCCC(=O)CC [3-hexanone] | 39% | 1% | 38% | 8.3% | Response Avg % (Aedes aegypti; [3]): 1.0% |
| CCSSCC [diethyl disulfide] | 49% | 33% | 16% | 2.8% |  |
| CCCCC(=O)CC [3-heptanone] | 36% | 12% | 24% | 11.3% |  |
| CCCC(=O)CCC [4-heptanone] | 32% | 12% | 20% | 8.0% |  |
| ClC(Cl)Cl [chloroform] | 76% | 24% | 52% |  | % caught (Anopheles albimanus; in vivo): 78.7% |
| CC(=O)C(C)C [3-methyl-2-butanone] | 82% | 8% | 74% | 24.4% |  |
| CCCSSC [methyl propyl disulfide] | 40% | 19% | 21% | 12.3% |  |

| Structure (SMILES) | Response with L-LA (%) (Aedes aegypti) | Response (%) (Aedes aegypti; [1]) | Δ [(Resp with LA) − Resp] (%) (Aedes aegypti) | % caught (Anopheles albimanus; single treatment, 500 μL) | further results |
| --- | --- | --- | --- | --- | --- |
| C=CSCC [ethyl vinyl sulfide] | 55% | 18% | 37% | 25.4% | Response Avg % (Aedes aegypti; no Base, Activator1 dose 500): 18.0% |
| CC(=O)C(C)O (stereo not drawn) [3-hydroxy-2-butanone] | 35% | 11% | 24% | 1.3% | Response (%) (Aedes aegypti; [2]): 9%; Response with Ace (%) (Aedes aegypti): 57%; Δ [(Resp with Ace) − Resp] (%) (Aedes aegypti): 48% |
| CCC(=O)CC [3-pentanone] | 28% | 12% | 16% | 53.9% |  |
| CCCCCCC(C)=O [2-octanone] | 16% | 8% | 8% | 28.6% |  |
| CC(=O)c1ccccc1 [acetophenone] | 46% | 9% | 37% | 7.9% |  |
| Cc1ccco1 [2-methylfuran] | 52% | 15% | 37% | 35.5% | caught in CK (check or control port) (Aedes aegypti; mosquitoes in control port): 30% |
| N#CCc1ccccc1 [phenylacetonitrile] | 63% | 16% | 47% | 1.3% |  |
| CC(=O)CC(C)C [4-methyl-2-pentanone] | 64% | 0% | 64% | 1.3% | Response Avg % (Aedes aegypti; [3]): 0.0% |
| CSSC [dimethyl disulfide] | 86% | 36% | 50% | 97.3% |  |
| CCCCCCC(=O)CC [3-nonanone] | 9% | 4% | 5% | 15.8% | Response Avg % (Aedes aegypti; [3]): 4.0% |
| Cc1ccc(O)cc1 [p-cresol] | 32% | 5% | 27% | 29.5% | Response Avg % (Aedes aegypti; [3]): 5.0% |
| CCCCCCCCC(C)=O [2-decanone] | 24% | 14% | 10% | 4.0% |  |
| CCC(=O)C(C)C [2-methyl-3-pentanone] | 9% | 1% | 8% | 5.3% | Response Avg % (Aedes aegypti; [3]): 1.0% |
| CC(=O)CCC=C(C)C [6-methyl-5-hepten-2-one] | 16% | 9% | 27% | 26.0% |  |
| S=C=S [carbon disulfide] | 89% | 82% | 7% | 56.0% |  |
| NCCCCN [1,4-Diaminobutane] |  |  |  |  | % caught (Aedes albopictus): 6.8% |
| CCC(C)=O [2-butanone] | 81% | 28% | 53% | 47.9% |  |
| CCCCC(=O)CCCC [5-nonanone] | 47% | 14% | 33% | 12.7% |  |
| O=Cc1ccccc1 [benzaldehyde] | 21% | 9% | 12% | 35.5% |  |
